Measurements from ChEMBL document CHEMBL1201862, “PubChem BioAssay data set” (2004).
Blank lines part the entries; values can stand above or below the compound they belong to. Active and inactive are the calls of the source.

Key:
Assay type in all cases: functional
[1] = molecular target: ALK tyrosine kinase receptor (Homo sapiens, UniProt Q9UM73);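 also: ALK tested as one member of a kinase panel screen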
[2] = molecular target: Serine/threonine-protein kinase D3 (Homo sapiens, UniProt O94806);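 also: determined within a kinase panel screen, with PRKCN as the panel member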
[3] = molecular target: Tyrosine-protein kinase BTK (Homo sapiens, UniProt Q06187)
[4] = molecular target: Platelet-derived growth factor receptor alpha (Homo sapiens, UniProt P16234); assay: Navigating the Kinome. Panel member name: PDGFRA
[5] = molecular target: Cyclin-dependent kinase 8 (Homo sapiens, UniProt P49336); assay: Navigating the Kinome. Panel member name: CDK8
[6] = molecular target: Cyclin-dependent kinase 7 (Homo sapiens, UniProt P50613);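 also: value comes from a kinome-wide kinase profiling panel in which CDK7 is one member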
[7] = molecular target: Mitogen-activated protein kinase kinase kinase kinase 4 (Homo sapiens, UniProt O95819)
[8] = molecular target: Inhibitor of nuclear factor kappa-B kinase subunit epsilon (Homo sapiens, UniProt Q14164); assay: Navigating the Kinome. Panel member name: IKBKE
[9] = molecular target: T1, Hexokinase HKDC1 (Homo sapiens, UniProt Q2TB90); assay: HKDC1 hexokinase inhibitors, dose response, biochemical, W721R variant (AID 504729)
T1 sequence (Q2TB90 whole entry): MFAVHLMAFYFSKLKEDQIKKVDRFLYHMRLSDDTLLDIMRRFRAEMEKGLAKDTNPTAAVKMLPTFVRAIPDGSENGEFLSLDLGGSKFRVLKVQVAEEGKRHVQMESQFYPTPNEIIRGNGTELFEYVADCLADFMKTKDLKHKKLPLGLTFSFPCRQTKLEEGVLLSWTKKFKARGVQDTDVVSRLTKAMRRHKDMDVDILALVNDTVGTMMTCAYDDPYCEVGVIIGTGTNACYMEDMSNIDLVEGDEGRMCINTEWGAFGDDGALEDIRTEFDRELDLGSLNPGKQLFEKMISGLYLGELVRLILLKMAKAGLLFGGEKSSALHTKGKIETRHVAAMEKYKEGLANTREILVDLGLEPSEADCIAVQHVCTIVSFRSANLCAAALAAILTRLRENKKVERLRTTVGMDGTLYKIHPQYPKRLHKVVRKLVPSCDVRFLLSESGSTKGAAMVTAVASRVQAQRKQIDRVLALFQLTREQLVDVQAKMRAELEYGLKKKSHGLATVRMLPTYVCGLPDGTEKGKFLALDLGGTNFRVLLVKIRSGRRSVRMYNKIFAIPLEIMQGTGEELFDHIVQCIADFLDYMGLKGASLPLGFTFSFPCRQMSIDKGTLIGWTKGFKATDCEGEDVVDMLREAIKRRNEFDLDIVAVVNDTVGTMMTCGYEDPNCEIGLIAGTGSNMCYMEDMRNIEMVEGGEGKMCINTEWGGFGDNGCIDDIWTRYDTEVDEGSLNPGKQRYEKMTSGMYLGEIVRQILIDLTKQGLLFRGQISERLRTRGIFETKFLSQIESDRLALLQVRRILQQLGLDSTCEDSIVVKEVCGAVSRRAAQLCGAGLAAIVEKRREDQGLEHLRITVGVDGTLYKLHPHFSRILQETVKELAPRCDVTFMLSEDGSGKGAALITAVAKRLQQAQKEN

[10] = molecular target: Mast/stem cell growth factor receptor Kit (Homo sapiens, UniProt P10721);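 also: KIT entry within a kinase panel assay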
[11] = molecular target: Insulin receptor (Homo sapiens, UniProt P06213);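 also: insulin receptor kinase tested as one member of a kinome-wide kinase panel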
[12] = molecular target: 3-phosphoinositide-dependent protein kinase 1 (Homo sapiens, UniProt O15530);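 also: value comes from the Navigating the Kinome panel, PDPK1 member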
[13] = molecular target: Inhibitor of nuclear factor kappa-B kinase subunit beta (Homo sapiens, UniProt O14920)
[14] = molecular target: Phospholipase A2 (Homo sapiens, UniProt P04054);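 also: confirmatory dose-response counterscreen on phospholipase A2, testing hits that came from an ultra-high-throughput screen for ATG4B inhibitors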

Chain of Tyrosine-protein kinase BTK (Q06187 whole entry): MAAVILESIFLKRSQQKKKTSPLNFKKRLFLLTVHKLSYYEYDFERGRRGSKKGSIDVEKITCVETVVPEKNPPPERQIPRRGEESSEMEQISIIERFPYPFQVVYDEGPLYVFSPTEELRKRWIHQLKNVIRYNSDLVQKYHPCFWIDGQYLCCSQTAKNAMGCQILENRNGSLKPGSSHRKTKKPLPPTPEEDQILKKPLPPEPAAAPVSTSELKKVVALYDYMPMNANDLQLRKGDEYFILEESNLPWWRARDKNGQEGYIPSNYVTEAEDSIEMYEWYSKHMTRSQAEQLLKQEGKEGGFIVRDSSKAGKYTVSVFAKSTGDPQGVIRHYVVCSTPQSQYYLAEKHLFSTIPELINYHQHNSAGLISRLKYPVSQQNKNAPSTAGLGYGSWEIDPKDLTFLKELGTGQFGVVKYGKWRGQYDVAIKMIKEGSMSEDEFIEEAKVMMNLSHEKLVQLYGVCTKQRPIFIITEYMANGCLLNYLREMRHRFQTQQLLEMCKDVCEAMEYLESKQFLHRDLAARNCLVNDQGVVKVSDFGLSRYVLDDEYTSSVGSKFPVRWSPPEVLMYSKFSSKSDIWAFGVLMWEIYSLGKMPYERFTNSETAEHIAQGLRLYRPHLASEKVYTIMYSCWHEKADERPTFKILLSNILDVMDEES
Chain of ALK tyrosine kinase receptor (Q9UM73 whole entry): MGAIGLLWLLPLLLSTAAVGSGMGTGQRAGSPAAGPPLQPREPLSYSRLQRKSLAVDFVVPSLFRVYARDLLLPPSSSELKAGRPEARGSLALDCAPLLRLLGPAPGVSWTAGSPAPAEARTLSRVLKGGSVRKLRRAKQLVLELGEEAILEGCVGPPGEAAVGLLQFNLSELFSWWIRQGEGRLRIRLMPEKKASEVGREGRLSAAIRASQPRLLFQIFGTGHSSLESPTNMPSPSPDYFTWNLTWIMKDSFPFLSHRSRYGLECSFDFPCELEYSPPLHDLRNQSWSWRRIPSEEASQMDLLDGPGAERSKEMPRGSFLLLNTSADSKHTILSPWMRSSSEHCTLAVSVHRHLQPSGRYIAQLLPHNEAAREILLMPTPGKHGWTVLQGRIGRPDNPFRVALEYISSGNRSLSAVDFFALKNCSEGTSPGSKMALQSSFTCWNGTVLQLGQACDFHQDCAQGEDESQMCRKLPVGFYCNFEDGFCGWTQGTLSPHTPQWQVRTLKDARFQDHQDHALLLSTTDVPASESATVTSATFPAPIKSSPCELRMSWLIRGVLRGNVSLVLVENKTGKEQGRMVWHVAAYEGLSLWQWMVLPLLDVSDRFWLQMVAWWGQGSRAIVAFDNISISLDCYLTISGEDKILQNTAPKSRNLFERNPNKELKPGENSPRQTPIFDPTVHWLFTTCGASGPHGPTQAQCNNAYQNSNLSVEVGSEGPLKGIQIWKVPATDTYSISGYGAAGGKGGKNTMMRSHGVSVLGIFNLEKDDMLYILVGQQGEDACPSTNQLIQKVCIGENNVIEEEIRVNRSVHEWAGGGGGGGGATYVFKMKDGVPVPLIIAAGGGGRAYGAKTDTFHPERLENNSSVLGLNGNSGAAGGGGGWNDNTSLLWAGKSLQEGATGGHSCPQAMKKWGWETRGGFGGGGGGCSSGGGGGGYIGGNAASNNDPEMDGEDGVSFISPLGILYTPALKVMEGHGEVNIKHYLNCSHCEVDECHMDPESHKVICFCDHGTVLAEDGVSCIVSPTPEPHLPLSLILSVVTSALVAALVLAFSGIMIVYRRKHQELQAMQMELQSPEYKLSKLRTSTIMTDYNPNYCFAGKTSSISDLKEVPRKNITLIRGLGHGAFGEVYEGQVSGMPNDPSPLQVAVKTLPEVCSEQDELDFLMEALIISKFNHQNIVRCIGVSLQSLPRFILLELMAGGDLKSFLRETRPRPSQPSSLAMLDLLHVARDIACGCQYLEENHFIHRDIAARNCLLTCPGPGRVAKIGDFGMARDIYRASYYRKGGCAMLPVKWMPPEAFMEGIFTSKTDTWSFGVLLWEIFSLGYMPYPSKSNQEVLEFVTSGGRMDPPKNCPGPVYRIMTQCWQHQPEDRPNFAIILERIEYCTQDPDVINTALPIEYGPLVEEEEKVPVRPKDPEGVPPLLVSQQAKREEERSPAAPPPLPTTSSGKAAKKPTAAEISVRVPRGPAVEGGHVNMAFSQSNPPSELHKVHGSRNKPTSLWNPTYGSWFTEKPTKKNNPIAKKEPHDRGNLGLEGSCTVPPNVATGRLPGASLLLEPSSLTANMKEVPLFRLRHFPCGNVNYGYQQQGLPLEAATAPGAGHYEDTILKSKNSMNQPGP
Chain of Cyclin-dependent kinase 8 (P49336 whole entry): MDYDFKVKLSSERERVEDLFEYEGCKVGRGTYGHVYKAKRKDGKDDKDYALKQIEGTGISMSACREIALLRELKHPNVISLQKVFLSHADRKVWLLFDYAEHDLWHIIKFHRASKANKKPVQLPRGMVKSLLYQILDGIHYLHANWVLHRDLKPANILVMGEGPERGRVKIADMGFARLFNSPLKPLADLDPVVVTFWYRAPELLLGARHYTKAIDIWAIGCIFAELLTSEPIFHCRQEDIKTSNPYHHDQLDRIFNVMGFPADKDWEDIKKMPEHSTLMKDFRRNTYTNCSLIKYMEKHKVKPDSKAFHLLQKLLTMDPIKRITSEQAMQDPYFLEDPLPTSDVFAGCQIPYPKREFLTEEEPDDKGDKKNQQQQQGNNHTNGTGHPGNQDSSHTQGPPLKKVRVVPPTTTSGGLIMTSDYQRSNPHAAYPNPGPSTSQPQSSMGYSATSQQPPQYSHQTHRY
Chain of Mast/stem cell growth factor receptor Kit (P10721 whole entry): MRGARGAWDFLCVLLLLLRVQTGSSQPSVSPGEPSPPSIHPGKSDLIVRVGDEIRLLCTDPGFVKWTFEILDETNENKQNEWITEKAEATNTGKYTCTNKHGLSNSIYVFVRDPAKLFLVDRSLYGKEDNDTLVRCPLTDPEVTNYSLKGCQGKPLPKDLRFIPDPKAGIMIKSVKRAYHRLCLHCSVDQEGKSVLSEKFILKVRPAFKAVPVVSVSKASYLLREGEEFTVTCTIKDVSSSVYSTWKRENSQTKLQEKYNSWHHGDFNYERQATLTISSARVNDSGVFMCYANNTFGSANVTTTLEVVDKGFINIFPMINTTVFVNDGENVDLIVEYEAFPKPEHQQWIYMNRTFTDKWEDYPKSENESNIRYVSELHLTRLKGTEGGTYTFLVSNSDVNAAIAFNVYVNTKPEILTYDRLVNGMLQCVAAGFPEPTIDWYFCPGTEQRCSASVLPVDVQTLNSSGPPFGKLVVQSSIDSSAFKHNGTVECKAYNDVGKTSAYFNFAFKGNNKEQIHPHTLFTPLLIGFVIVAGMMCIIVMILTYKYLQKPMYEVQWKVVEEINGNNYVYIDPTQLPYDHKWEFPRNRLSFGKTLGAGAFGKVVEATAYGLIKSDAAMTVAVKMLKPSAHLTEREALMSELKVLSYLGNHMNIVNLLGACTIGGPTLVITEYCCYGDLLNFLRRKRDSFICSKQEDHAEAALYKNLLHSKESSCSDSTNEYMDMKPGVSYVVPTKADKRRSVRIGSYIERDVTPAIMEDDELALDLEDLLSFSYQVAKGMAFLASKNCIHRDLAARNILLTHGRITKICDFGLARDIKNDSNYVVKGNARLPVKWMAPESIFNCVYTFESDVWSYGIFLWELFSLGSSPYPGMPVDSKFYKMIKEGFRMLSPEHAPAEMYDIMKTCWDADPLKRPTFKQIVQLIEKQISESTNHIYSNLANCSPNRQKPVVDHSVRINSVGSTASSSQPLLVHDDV
Chain of Insulin receptor (P06213 28-758 limits assumed): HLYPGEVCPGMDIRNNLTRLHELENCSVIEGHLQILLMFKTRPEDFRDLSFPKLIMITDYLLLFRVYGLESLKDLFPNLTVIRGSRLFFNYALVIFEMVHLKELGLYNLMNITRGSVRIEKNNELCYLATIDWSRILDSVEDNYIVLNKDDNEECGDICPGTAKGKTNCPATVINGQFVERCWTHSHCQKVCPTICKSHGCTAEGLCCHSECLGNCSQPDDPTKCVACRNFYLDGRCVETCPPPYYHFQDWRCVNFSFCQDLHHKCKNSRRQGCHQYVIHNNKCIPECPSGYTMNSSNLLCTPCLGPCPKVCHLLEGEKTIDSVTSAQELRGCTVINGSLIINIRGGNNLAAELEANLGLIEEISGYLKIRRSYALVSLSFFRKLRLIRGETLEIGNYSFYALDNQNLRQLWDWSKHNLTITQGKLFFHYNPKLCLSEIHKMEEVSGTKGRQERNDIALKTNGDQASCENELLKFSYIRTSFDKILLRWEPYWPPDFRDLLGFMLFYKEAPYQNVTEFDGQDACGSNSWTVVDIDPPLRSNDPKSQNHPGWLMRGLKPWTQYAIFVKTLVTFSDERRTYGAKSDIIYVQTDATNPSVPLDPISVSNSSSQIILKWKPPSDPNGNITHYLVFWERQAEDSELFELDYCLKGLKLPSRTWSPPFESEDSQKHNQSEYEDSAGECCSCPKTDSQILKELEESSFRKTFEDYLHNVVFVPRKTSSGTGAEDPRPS
Chain of Insulin receptor (P06213 763-1382 limits assumed): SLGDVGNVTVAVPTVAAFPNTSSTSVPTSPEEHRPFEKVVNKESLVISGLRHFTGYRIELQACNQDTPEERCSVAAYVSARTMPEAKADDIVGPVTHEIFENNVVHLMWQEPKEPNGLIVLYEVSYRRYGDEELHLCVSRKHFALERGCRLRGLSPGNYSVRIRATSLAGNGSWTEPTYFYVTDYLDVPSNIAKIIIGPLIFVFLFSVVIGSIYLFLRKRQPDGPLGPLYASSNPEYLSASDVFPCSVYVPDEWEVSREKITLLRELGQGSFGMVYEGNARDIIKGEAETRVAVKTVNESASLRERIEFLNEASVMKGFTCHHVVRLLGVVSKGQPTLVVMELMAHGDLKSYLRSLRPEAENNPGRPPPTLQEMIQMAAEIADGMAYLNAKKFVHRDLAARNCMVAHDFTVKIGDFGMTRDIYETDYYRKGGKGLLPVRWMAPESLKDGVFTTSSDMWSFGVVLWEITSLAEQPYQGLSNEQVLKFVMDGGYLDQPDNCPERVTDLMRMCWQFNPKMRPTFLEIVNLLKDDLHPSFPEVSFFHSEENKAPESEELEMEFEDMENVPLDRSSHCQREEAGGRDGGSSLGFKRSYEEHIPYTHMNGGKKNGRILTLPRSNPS

Ki [1]: > 6.31 µM (inactive) | Ki [2]: > 3.98 µM (inactive) | Ki [3]: > 6.31 µM (inactive) | Ki [4]: 0.2 µM (active) | Ki [5]: 0.158 µM (active) | Ki [6]: > 3.98 µM (inactive) | Ki [7]: > 5.01 µM (inactive) | Ki [8]: > 3.16 µM (inactive)
Structure (SMILES): Cc1cc(=O)[nH]nc1-c1ccc(NC(=O)Nc2cc(C(F)(F)F)ccc2F)c(Cl)c1

Structure (SMILES): O=C1C=C(NCc2ccccc2)c2ccccc2C1=O
IC50 [9]: 2.5 µM (active)

Ki [10]: > 1.26 µM (inactive) | Ki [11]: > 5.01 µM (inactive) | Ki [12]: > 3.98 µM (inactive) | Ki [13]: > 3.16 µM (inactive)
Structure (SMILES): CCOC(=O)c1cn(-c2ccc(O)cc2C)c2cc(-c3ccncc3)ccc2c1=O

Structure (SMILES): O=C(O)c1[nH]c2ccccc2c1C(c1cc(Cl)cc([N+](=O)[O-])c1O)c1c(C(=O)O)[nH]c2ccccc12
IC50 [14]: 9.04 µM (active)
